What is called IC50 is the concentration at which inhibition is half-maximal. Broadly, the chromatographic logD is lipophilicity estimated from chromatographic retention. A word on the Solubility: it is how much of the substance goes into solution per volume. A lower Solubility goes with a poorly soluble substance.

≈ marks a conversion by molar mass, not a printed value. Where “and” joins values, the source holds several entries; their conditions need not be identical. Identical values can stand only once. Like-named read-outs stand apart in the source and are kept apart here.

The values that follow come from patent publication US20240116985A1, “STAPLED PEPTIDES AND METHODS THEREOF” (priority 2020, published 2024).

Data set [1] deals with T1, full-length beta-Catenin (Uniprot ID P35222) (Homo sapiens, UniProt P35222).
T1 construct: 10 nM full-length beta-Catenin (Uniprot ID P35222)
T1 sequence (P35222 1-781): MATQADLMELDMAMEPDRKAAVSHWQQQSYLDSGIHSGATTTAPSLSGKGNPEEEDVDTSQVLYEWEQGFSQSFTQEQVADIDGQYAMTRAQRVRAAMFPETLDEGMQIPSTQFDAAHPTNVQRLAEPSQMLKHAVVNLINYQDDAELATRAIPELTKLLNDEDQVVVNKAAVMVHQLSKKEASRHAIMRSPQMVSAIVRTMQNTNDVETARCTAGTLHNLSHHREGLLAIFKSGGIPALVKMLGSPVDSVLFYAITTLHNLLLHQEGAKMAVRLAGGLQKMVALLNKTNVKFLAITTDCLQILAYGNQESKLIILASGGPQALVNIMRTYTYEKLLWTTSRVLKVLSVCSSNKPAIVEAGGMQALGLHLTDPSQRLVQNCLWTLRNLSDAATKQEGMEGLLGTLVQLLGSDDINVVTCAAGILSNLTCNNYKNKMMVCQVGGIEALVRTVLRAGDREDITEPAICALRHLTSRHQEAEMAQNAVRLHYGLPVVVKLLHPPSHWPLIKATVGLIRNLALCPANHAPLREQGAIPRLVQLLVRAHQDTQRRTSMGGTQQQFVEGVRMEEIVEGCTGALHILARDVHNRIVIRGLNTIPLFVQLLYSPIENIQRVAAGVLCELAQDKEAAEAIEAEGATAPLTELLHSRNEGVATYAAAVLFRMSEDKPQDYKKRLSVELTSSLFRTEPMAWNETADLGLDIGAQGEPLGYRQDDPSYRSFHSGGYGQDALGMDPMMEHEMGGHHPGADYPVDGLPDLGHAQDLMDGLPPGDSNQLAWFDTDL
Nature of the data set: Fluorescence polarization IC50 (beta-catenin / 5FAM-TCF4 10-53 competition). The data set is classed as binding. As to conditions: read-out: beta-Catenin FP IC50. (In fluorescence polarisation assays a small probe gives low polarisation when free and higher when bound to something large.)

A short description of a further data set: CHI Log D procedure. As to conditions: pH 7.4, CHI Log D. The data set is classed as physicochemical.
A short description of a further data set: Solubility in PBS. The settings on record: Solubility (uM). Type of data set: physicochemical. In a few lines:
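Steps: ultracentrifuge the peptide PBS solution, inject the supernatant on HPLC, inject a 50 μM peptide DMSO solution as reference, then calculate solubility as area ratio (PBS/DMSO) × 50 uM.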

For data set [2], the target named is T2, beta-catenin/TCF4 engagement (Homo sapiens, UniProt P35222).
T2 construct: expressed in transfected cells; host or cells: HEK293
T2 sequence (P35222 1-781): T1 sequence (P35222 1-781)
Nature of the data set: Nano-BRET target engagement assay (B-cat-Halo & TCF4-Luc in HEK293 cells). Type of data set: cell-based. As to conditions: absolute IC50; read-out: NanoBRET Abs IC50. On the technique in general: BRET reads energy transfer from a luciferase to a nearby fluorophore.

The subject of data set [3] is TCF/LEF luciferase Reporter in DLD1 cells. Nature of the data set: TCF reporter assay (DLD1 TCF/LEF luciferase reporter, Bright-Glo). Type of data set: cell-based. As to conditions: for DLD1 TCF c2 BrightGlo % Inhibition: replicates. The method in brief: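 Readouts: Bright-Glo luciferase for reporter signal and CellTiter-Glo for cell viability, with absolute IC50 derived. The reporter clone came from lentiviral TCF/LEF-luciferase transduction of DLD1 cells, seeded 5000 cells/well in RPMI with 4% FBS and exposed overnight to serially diluted compounds.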
(In general: A reporter such as luciferase makes a cellular process visible.)

The mark [4] stands for this setting: absolute IC50, read-out: DLD1 reporter assay Abs IC50.
Setting [5] is: read-out: DLD1 4% Abs IC50, DLD1 4%.
Setting [6] is: first dose = 20 uM (plate map), 20 µM.
[7] abbreviates: third dose = 5 uM (plate map), 5 µM.

`CC(=O)N1CCC[C@]12CC=CCCCC1(CCCC=CCCCOC(=O)N3CC[C@@](C(=O)N[C@@H](Cc4ccccc4Cl)C(=O)N[C@@H](Cc4csc5ccccc45)C(=O)N[C@@H](CCC(N)=O)C(N)=O)(C3)NC(=O)[C@H](CO)NC(=O)[C@H](Cc3ccccc3)NC(=O)[C@H](C)NC(=O)[C@H](C)NC(=O)[C@H](CC(=O)O)NC(=O)[C@H](CC(=O)O)NC1=O)NC(=O)[C@H](CC1CCCCC1)NC(=O)[C@H](CC(=O)O)NC2=O` (stereo partly drawn) [I-1044, Ac-PL3-Asp-Cha-B5-Asp-Asp-Ala-Ala-Phe-Ser-PyrS2-2C1F-BztA-Gln-NH2]: the half-inhibitory concentration (IC50) in data set [1] is 0.005 µM; in data set [2], 17.6 µM; in data set [3] (setting [4]), 20 µM; in data set [3] (setting [5]), 14.5 µM. In the data set “CHI Log D procedure”, this compound gave a chromatographic logD of 2.32. Further, the Solubility in “Solubility in PBS” was 43 µM (≈ 83.7 µg/mL).

Take `CC(=O)N1CCC[C@]12CC=CCCCC1(CCCC=CCCCOC(=O)N3CC[C@@](C(=O)N[C@@H](Cc4ccccc4Cl)C(=O)N[C@@H](Cc4csc5ccccc45)C(=O)N[C@@H](CO)C(N)=O)(C3)NC(=O)[C@H]([C@@H](C)O)NC(=O)[C@H](Cc3ccccc3)NC(=O)[C@H](C)NC(=O)[C@H](C)NC(=O)[C@H](CC(=O)O)NC(=O)[C@H](CC(=O)O)NC1=O)NC(=O)[C@H](CC1CCCCC1)NC(=O)[C@H](CC(=O)O)NC2=O` (stereo partly drawn) [I-1048, Ac-PL3-Asp-Cha-B5-Asp-Asp-Ala-Ala-Phe-Thr-PyrS2-2C1F-BztA-Ser-NH2]: the IC50 amounted to 0.005 µM in data set [1], 8.8 µM in data set [2] and 10.5 µM in data set [3] (setting [4]). In “CHI Log D procedure”, this compound showed a chromatographic logD of 2.52. In “Solubility in PBS”, this compound gave a Solubility of 42 µM (≈ 80.6 µg/mL).

On to `CC(=O)N1CCC[C@]12CC=CCCCC1(CCCC=CCCCOC(=O)N3CC[C@@](C(=O)N[C@@H](Cc4ccccc4Cl)C(=O)N[C@@H](Cc4csc5ccccc45)C(=O)N[C@@H](CO)C(N)=O)(C3)NC(=O)[C@H](CO)NC(=O)[C@H](Cc3ccccc3)NC(=O)[C@H](C)NC(=O)[C@H](C)NC(=O)[C@H](CC(=O)O)NC(=O)[C@H](CC(=O)O)NC1=O)NC(=O)[C@H](CC1CCCCC1)NC(=O)[C@H](CC(=O)O)NC2=O` (stereo partly drawn) [I-1050, Ac-PL3-Asp-Cha-B5-Asp-Asp-Ala-Ala-Phe-Ser-PyrS2-2C1F-BztA-Ser-NH2], for which the IC50 in data set [1] was found to be 0.005 µM; in data set [2], 24.8 µM; in data set [3] (setting [4]) it was 11.2 µM. In the data set “CHI Log D procedure”, this compound yielded a chromatographic logD of 2.45. The same compound came in with a Solubility in “Solubility in PBS” of 43 µM (≈ 81.9 µg/mL). In addition, the “DLD1 TCF c2 BrightGlo % Inhibition” value in data set [3] (setting [6]) was 61.5% and 59.8% and 58.7%; in data set [3] (0.625 µM), 13.7% and 5.5% and 6.1%; in data set [3] (1.25 µM), 6.8% and −0.9% and −4.5%; in data set [3] (2.5 µM) it was 6.2% and 1.9% and −2.2%; in data set [3] (10 µM), 50.8% and 46.4% and 39.4%; in data set [3] (setting [7]), 25.4% and 24.7% and 12.9%.

In the case of `CC(=O)N1CCC[C@]12CC=CCCCC1(CCCC=CCCCOC(=O)N3CC[C@@](C(=O)N[C@@H](Cc4ccccc4Cl)C(=O)N[C@@H](Cc4csc5ccccc45)C(=O)N[C@@H](CO)C(N)=O)(C3)NC(=O)[C@H](CO)NC(=O)[C@H](Cc3ccccc3)NC(=O)[C@H](C)NC(=O)[C@H](C)NC(=O)[C@H](CC(=O)O)NC(=O)[C@H](CC(=O)O)NC1=O)NC(=O)[C@H](Cc1ccccc1)NC(=O)[C@H](CC(=O)O)NC2=O` (stereo partly drawn) [I-1051, Ac-PL3-Asp-Phe-B5-Asp-Asp-Ala-Ala-Phe-Ser-PyrS2-2C1F-BztA-Ser-NH2], the results for the 50% inhibitory concentration (IC50) in data set [1], in data set [2] and in data set [3] (setting [4]) were 0.014 µM, more than 20 µM and more than 20 µM, respectively. Also, in “CHI Log D procedure”, the chromatographic logD came to 2.23. The same compound registered a Solubility in “Solubility in PBS” of 48 µM (≈ 91.1 µg/mL). Besides, the “DLD1 TCF c2 BrightGlo % Inhibition” value in data set [3] (setting [6]) is 20.2% and 21.7% and 24.7%; in data set [3] (0.625 µM) it was −1.7% and −3.4% and 0.0%; in data set [3] (1.25 µM), −12.2% and −5.2% and −3.8%; in data set [3] (2.5 µM), −12.5% and −11.1% and −13.2%; in data set [3] (10 µM), 3.9% and 5.0% and −0.5%; in data set [3] (setting [7]) it was −4.1% and −5.0% and −11.4%.

Consider `CCNC(=O)[C@H](CCC(N)=O)NC(=O)[C@H](Cc1csc2ccccc12)NC(=O)[C@H](Cc1ccccc1Cl)NC(=O)[C@]12CCN(C1)C(=O)OCCCC=CCCCC1(CCCC=CC[C@]3(CCCN3C(C)=O)C(=O)N[C@@H](CC(=O)O)C(=O)N[C@@H](CC(C)(C)C)C(=O)N1)C(=O)N[C@@H](CC(=O)O)C(=O)N[C@@H](CC(=O)O)C(=O)N[C@@H](C)C(=O)N[C@@H](C)C(=O)N[C@@H](Cc1ccccc1)C(=O)N[C@@H](CC(N)=O)C(=O)N2` (stereo partly drawn) [I-1079, Ac-PL3-Asp-Npg-B5-Asp-Asp-Ala-Ala-Phe-Asn-PyrS2-2C1F-BztA-Gln-NHEt], for which the IC50 was found to be 0.005 µM in data set [1], 19.7 µM in data set [2] and 14.5 µM in data set [3] (setting [4]). The compound further came in with a chromatographic logD in the data set “CHI Log D procedure” of 2.5. The same compound came in with a Solubility in the data set “Solubility in PBS” of 45 µM (≈ 88.9 µg/mL). In addition, the “DLD1 TCF c2 BrightGlo % Inhibition” value in data set [3] (setting [6]) was 55.6% and 58.1% and 54.7%; in data set [3] (0.625 µM), 1.4% and 6.9% and 6.8%; in data set [3] (1.25 µM) it was 1.4% and −0.6% and 2.6%; in data set [3] (2.5 µM) it was −25.7% and −0.8% and 5.1%; in data set [3] (10 µM), 34.2% and 39.4% and 42.0%; in data set [3] (setting [7]), 7.4% and 16.0% and 26.5%.

On to `CC(=O)N1CCC[C@]12CC=CCCCC1(CCCC=CCCCOC(=O)N3CC[C@@](C(=O)N[C@@H](Cc4ccccc4Cl)C(=O)N[C@@H](Cc4csc5ccccc45)C(=O)N[C@H](CO)CC(C)C)(C3)NC(=O)[C@H](CC(N)=O)NC(=O)[C@H](Cc3ccccc3)NC(=O)[C@H](C)NC(=O)[C@H](C)NC(=O)[C@H](CC(=O)O)NC(=O)[C@H](CC(=O)O)NC1=O)NC(=O)[C@H](CC(C)(C)C)NC(=O)[C@H](CC(=O)O)NC2=O` (stereo partly drawn) [I-1080, Ac-PL3-Asp-Npg-B5-Asp-Asp-Ala-Ala-Phe-Asn-PyrS2-2C1F-BztA-Leuo1], for which the IC50 is 0.006 µM in data set [1], more than 20 µM in data set [2], 17.2 µM in data set [3] (setting [4]) and 10.4 µM in data set [3] (setting [5]). The chromatographic logD in the data set “CHI Log D procedure” was determined as 2.59. The same compound yielded a Solubility in “Solubility in PBS” of 47 µM (≈ 90.2 µg/mL). The “DLD1 TCF c2 BrightGlo % Inhibition” value in data set [3] (setting [6]) is 51.4% and 56.9% and 51.8%; in data set [3] (0.625 µM), 20.2% and 13.7% and 15.3%; in data set [3] (1.25 µM) it was 16.0% and 13.8% and 12.3%; in data set [3] (2.5 µM) it was 14.6% and 19.8% and 7.9%; in data set [3] (10 µM) it was 42.4% and 42.2% and 38.1%; in data set [3] (setting [7]), 24.9% and 31.0% and 24.4%.
